The values that follow come from US20180099931A1 (AbbVie S.à.r.l., priority 2016, published 2018).

Like-named read-outs stand apart in the source and are kept apart here. Some results are limits rather than exact numbers.

In this assay the target is T1, F508delCFTR (Homo sapiens, UniProt P13569, DEL508-508).
T1 construct: expressed in transfected cells; host or cells: CFBE41o- human lung-derived epithelial cells (CFBE4lo-F508delCFTR-HRP), doxycycline-inducible
In words: Cell Surface Expression-Horse Radish Peroxidase (CSE-HRP) Assay.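 As to Maximum % activity (with co-corrector): co-corrector and positive control are both the same reference corrector at 2 µM.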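 As to Maximum % activity (without co-corrector): percent of the 2 µM on-plate positive control corrector response above DMSO.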 The class given is cell-based. The settings on record: for Maximum % activity (with co-corrector) / Emax: maximum at any tested concentration, normalized to on-plate positive control; for Emax: read-out: Maximum % activity (without co-corrector). The protocol:
Cell Surface Expression-Horse Radish Peroxidase (CSE-HRP) Assay;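 as to Maximum % activity (with co-corrector): co-corrector and positive control are both the same reference corrector at 2 µM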;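 as to Maximum % activity (without co-corrector): percent of the 2 µM on-plate positive control corrector response above DMSO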
The development was achieved by expressing the F508delCFTR mutation along with a horseradish peroxidase (HRP) in the fourth exofacial loop, and then measuring the HRP activity using luminescence readout from these cells, CFBE4lo-F508delCFTR-HRP, that were incubated overnight with the test corrector compounds, either without or with the co-corrector. […] The test compounds were then added either without or with a co-corrector at the required concentrations and further incubated for 18-24 hours at 33° C. The highest concentration tested was 20 μM with an 8-point concentration response curve using a 3-fold dilution in both the test compound without or with the co-corrector. Three replicate plates were run to determine one EC50. All plates contained negative controls (dimethyl sulfoxide, DMSO) and positive control (2 μM of 3-[(2R,4R)-4-({[1-(2,2-difluoro-1,3-benzodioxol-5-yl)cyclopropyl]carbonyl}amino)-7-methoxy-3,4-dihydro-2H-chromen-2-yl]benzoic acid) as well as on-plate concentration response of the positive control. […] The raw counts from the experiment were analyzed using Accelrys® Assay Explorer v3.3.
1−[3*SDPositive Control+3*SDNegative Control/Absolute(MeanPositive Control−MeanNegative Control)]
wherein “SD” is standard deviation.
The % activity measured at each of the 8 test concentrations of the test compound added either without or with a co-corrector (2 μM of 3-[(2R,4R)-4-({[1-(2,2-difluoro-1,3-benzodioxol-5-yl)cyclopropyl]carbonyl}amino)-7-methoxy-3,4-dihydro-2H-chromen-2-yl]benzoic acid) was normalized to the on-plate positive control using the following formulae:
% activity(Test compound without co-corrector)=[(test compound without co-corrector response−DMSO response)/(positive control response−DMSO response)]*100
% activity(Test compound with co-corrector)=[(test compound with co-corrector response−DMSO response)/(positive control response−DMSO response)]*100
The maximum % activity achieved for the test compound either without or with a co-corrector at any tested concentration is presented in Table 4 along with the respective EC50's calculated using the following general sigmoidal curve with variable Hill slope equation (described as Model 42 in the Accelrys® Assay Explorer v3.3 software):
General sigmoidal curve with concentration, response, top, bottom, EC50 and Hill slope. This model describes a sigmoidal curve with an adjustable baseline, a. The equation can be used to fit curves where response is either increasing or decreasing with respect to the independent variable, “x”.
“x” is a concentration of drug under test. “y” is the response. “a” is the maximum response, and “d” is the minimum response “c” is the inflection point (EC50) for the curve. That is, “y” is halfway between the lower and upper asymptotes when x=c. “b” is the slope-factor or Hill coefficient. The sign of b is positive when the response increases with increasing dose and is negative when the response decreases with increasing dose (inhibition).

Where [1] appears, read: test compound without co-corrector, read-out: EC50 (without co-corrector).
Setting [2] is: with co-corrector (2 μM of 3-[(2R,4R)-4-({[1-(2,2-difluoro-1,3-benzodioxol-5-yl)cyclopropyl]carbonyl}amino)-7-methoxy-3,4-dihydro-2H-chromen-2-yl]benzoic acid), read-out: EC50 (with co-corrector).
[3] abbreviates: test compound without co-corrector.
[4] abbreviates: CSE-HRP, test compound without co-corrector, read-out: EC50 (without co-corrector).
Where [5] appears, read: CSE-HRP, with co-corrector (2 μM of 3-[(2R,4R)-4-({[1-(2,2-difluoro-1,3-benzodioxol-5-yl)cyclopropyl]carbonyl}amino)-7-methoxy-3,4-dihydro-2H-chromen-2-yl]benzoic acid), read-out: EC50 (with co-corrector).
The mark [6] stands for this setting: CSE-HRP, with co-corrector (2 μM).

T1 sequence (P13569 with tags, fused parts or gaps DEL508-508): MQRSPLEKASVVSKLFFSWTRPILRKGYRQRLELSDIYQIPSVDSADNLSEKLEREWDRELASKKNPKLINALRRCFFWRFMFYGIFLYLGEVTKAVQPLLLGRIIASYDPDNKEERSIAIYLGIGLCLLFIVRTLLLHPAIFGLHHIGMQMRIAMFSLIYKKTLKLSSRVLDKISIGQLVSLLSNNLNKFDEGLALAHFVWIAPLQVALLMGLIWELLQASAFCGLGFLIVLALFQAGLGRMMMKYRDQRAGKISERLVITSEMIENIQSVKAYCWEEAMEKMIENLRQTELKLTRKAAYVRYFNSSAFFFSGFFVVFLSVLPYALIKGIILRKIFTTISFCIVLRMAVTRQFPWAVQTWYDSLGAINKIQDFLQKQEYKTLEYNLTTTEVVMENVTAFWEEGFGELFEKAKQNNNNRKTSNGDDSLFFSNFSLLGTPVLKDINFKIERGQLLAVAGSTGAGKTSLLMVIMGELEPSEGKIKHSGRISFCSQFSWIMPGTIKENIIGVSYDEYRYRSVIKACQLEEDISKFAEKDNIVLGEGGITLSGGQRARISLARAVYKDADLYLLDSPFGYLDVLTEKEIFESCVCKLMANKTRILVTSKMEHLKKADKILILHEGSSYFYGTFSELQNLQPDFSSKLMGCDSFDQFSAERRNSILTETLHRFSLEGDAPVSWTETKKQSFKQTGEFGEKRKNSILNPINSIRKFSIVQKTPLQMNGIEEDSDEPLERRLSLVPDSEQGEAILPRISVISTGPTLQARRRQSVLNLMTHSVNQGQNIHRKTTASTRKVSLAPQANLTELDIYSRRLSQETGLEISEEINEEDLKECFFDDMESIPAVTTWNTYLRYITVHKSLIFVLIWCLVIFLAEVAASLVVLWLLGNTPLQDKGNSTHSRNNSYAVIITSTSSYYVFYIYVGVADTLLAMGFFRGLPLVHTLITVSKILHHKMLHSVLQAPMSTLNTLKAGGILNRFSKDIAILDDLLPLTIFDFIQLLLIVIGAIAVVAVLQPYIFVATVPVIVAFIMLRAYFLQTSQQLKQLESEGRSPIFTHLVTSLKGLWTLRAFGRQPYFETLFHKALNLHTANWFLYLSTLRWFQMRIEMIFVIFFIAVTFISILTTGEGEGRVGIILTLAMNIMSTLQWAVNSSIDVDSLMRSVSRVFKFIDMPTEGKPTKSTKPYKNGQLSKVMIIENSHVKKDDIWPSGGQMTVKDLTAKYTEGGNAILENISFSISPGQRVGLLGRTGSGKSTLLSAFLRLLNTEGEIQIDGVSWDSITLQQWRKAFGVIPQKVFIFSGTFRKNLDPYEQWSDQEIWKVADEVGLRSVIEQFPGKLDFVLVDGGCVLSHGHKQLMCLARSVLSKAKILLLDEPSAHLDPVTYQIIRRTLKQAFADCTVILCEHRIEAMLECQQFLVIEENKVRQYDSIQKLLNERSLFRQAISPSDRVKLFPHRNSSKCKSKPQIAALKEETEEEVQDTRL

As a reminder, the EC50 is the midpoint of the concentration-response curve. Take `COc1ccc(S(C)(=O)=O)cc1CN[C@@H]1[C@@H](C(C)(C)C)[C@H](C(=O)O)N(C(=O)C2CCCCC2)[C@@H]1c1ccccc1` (racemic) [Example I-30]: the EC50 runs as follows: under setting [1], over 10 µM; under setting [2], over 10 µM. Moreover, where the note is “with co-corrector (2 μM)”, the “Maximum % activity (with co-corrector)” value was “+ (<150)”. Further, the Emax (without co-corrector) was under 100%.

`CO[C@@H]1CCC[C@@H](C(=O)N2[C@H](c3ccccc3)[C@H](Nc3cc(C(F)(F)F)cc(C)n3)[C@@H](C(C)(C)C)[C@@H]2C(=O)O)C1` (racemic) [Example I-31]: the EC50 is, setting by setting: under setting [1], 1 to 10 µM; under setting [2], 1 to 10 µM. For the setting “with co-corrector (2 μM)”, the “Maximum % activity (with co-corrector)” value is reported as “+++ (≥350)”. Where the note is “without co-corrector”, the Emax is under 100%.

As for `CC(C)c1ccccc1CN[C@@H]1[C@@H](C(C)(C)C)[C@H](C(=O)O)N(C(=O)C2CCCCC2)[C@@H]1c1ccccc1` (racemic) [Example I-35], the EC50 runs as follows: under setting [1], under 1 µM; under setting [2], under 1 µM. Moreover, the “Maximum % activity (with co-corrector)” value (with co-corrector (2 μM)) is “+++ (≥350)”. Besides, the Emax (without co-corrector) was under 100%.

As for `COc1ncc(Cl)cc1CN[C@@H]1[C@@H](C(C)(C)C)[C@H](C(=O)O)N(C(=O)C2CCCCC2)[C@@H]1c1ccccc1` (racemic) [Example I-36], the EC50 is, setting by setting: under setting [1], 1 to 10 µM; under setting [2], 1 to 10 µM. Besides, the “Maximum % activity (with co-corrector)” value (with co-corrector (2 μM)) is “+++ (≥350)”. Besides, the Emax (without co-corrector) lay within 100 to 200%.

With `Cc1cc(C(F)(F)F)cc(N[C@@H]2[C@@H](C(C)(C)C)[C@H](C(=O)O)N(C(=O)C3CCC4(CC3)CC4)[C@@H]2c2ccccc2)n1` (racemic) [Example I-37], the EC50 reads like this: under setting [1], over 10 µM; under setting [2], 1 to 10 µM. Moreover, the “Maximum % activity (with co-corrector)” value (with co-corrector (2 μM)) was “++ (≥150 and <350)”. For the same compound, the Emax (without co-corrector) is under 100%.

With `COc1cc(C(F)(F)F)cc(N[C@@H]2[C@@H](C(C)(C)OC)[C@H](C(=O)O)N(C(=O)C3CCCCC3)[C@@H]2c2ccccc2)n1` (racemic) [Example I-38], the EC50 under setting [1] lay in the range of 1 to 10 µM and the EC50 under setting [2] fell in the range of 1 to 10 µM. Also, the “Maximum % activity (with co-corrector)” value (with co-corrector (2 μM)) was “++ (≥150 and <350)”. Also, the Emax (without co-corrector) is under 100%.

As to `COc1ccc(Cl)cc1CN[C@H]1[C@H](C(C)(C)C)[C@@H](C(=O)O)N(C(=O)C2CCCCC2)[C@H]1c1ncccc1OC` (racemic) [Example I-40], the concentration for a half-maximal effect (EC50) by setting is: under setting [1], over 10 µM; under setting [2], over 10 µM. Also, the “Maximum % activity (with co-corrector)” value (with co-corrector (2 μM)) is listed as “+ (<150)”. For the same compound, the Emax (without co-corrector) is under 100%.

Take `COc1ccc(C(F)(F)F)cc1CN[C@@H]1[C@@H](C(C)(C)C)[C@H](C(=O)O)N(C(=O)C(C)(C)OC)[C@@H]1c1ccccc1` (racemic) [Example I-41]: the EC50 by setting is: under setting [1], over 10 µM; under setting [2], 1 to 10 µM. The “Maximum % activity (with co-corrector)” value (with co-corrector (2 μM)) was “++ (≥150 and <350)”. Further, where the note is “without co-corrector”, the Emax was under 100%.

For `COc1ccc(C(C)(C)C)cc1CN[C@H]1[C@H](C(C)(C)C)[C@@](C)(C(=O)O)N(C(=O)C2CCCCC2)[C@H]1c1ccccc1` (racemic) [Example I-211], the EC50 is, setting by setting: under setting [1], over 10 µM; under setting [2], 1 to 10 µM. For the same compound, the “Maximum % activity (with co-corrector)” value (with co-corrector (2 μM)) is recorded as “+ (<150)”. The Emax (without co-corrector) is under 100%.

On to `COCCS(=O)(=O)NC(=O)[C@H]1[C@H](C(C)(C)C)[C@@H](Nc2cc(C(F)(F)F)cc(C)n2)[C@@H](c2ccccc2)N1C(=O)C1CCCCC1` (racemic) [Example III-49, rac-(2R,3R,4R,5R)-3-(tert-butyl)-1-(cyclohexanecarbonyl)-N-((2-methoxyethyl)sulfonyl)-4-((6-methyl-4-(trifluoromethyl)pyridin-2-yl)amino)-5-phenylpyrrolidine-2-carboxamide], for which, under setting [3], the Emax is under 100%. In addition, the EC50 is, setting by setting: under setting [1], over 10 µM; under setting [2], 1 to 10 µM. In addition, the “Maximum % activity (with co-corrector)” value (with co-corrector (2 μM of 3-[(2R,4R)-4-({[1-(2,2-difluoro-1,3-benzodioxol-5-yl)cyclopropyl]carbonyl}amino)-7-methoxy-3,4-dihydro-2H-chromen-2-yl]benzoic acid)) is “++ (≥150 and <350)”.

As for `COc1ccc(C(C)(C)C)cc1CN[C@H]1[C@H](C(C)(C)C)[C@@H](C(=O)O)N(C(=O)C2CCCCC2)[C@H]1c1cccn(C)c1=O` (racemic) [Example III-228, rac-(2S,3S,4S,5S)-3-tert-butyl-4-{[(5-tert-butyl-2-methoxyphenyl)methyl]amino}-1-(cyclohexanecarbonyl)-5-(1-methyl-2-oxo-1,2-dihydropyridin-3-yl)pyrrolidine-2-carboxylic acid], the Emax under setting [3] is under 100%. Moreover, the concentration giving a half-maximal response (EC50) is, setting by setting: under setting [1], over 10 µM; under setting [2], over 10 µM. Also, the “Maximum % activity (with co-corrector)” value (with co-corrector (2 μM)) is “+ (<150)”.

`COc1ccc(CN[C@@H]2[C@@H](C(C)(C)C)[C@H](C(=O)O)N(C(=O)C3CCCCC3)[C@@H]2c2ccccc2)c(OC)c1Cl` (racemic) [II-3]: the EC50 fell in the range of 1 to 10 µM under setting [4] and 1 to 10 µM under setting [5]. Moreover, the “Maximum % activity (with co-corrector)” value under setting [6] was “++ (≥150 and <350)”. Further, the Emax (CSE-HRP, without co-corrector) is under 100%.

With `CC(C)Oc1ccccc1CN[C@@H]1[C@@H](C(C)(C)C)[C@H](C(=O)O)N(C(=O)C2CCCCC2)[C@@H]1c1ccccc1` (racemic) [II-4], the 50% effective concentration (EC50) runs as follows: under setting [4], 1 to 10 µM; under setting [5], 1 to 10 µM. Also, the “Maximum % activity (with co-corrector)” value under setting [6] was “+++ (≥350)”. In addition, the Emax (CSE-HRP, without co-corrector) was 100 to 200%.

Regarding `CC(C)COc1ccccc1CN[C@@H]1[C@@H](C(C)(C)C)[C@H](C(=O)O)N(C(=O)C2CCCCC2)[C@@H]1c1ccccc1` (racemic) [II-5], the EC50 lay within 1 to 10 µM under setting [4] and 1 to 10 µM under setting [5]. Further, the “Maximum % activity (with co-corrector)” value under setting [6] was “+++ (≥350)”. Moreover, under “CSE-HRP, without co-corrector”, the Emax is under 100%.

Consider `COc1ncccc1CN[C@@H]1[C@@H](C(C)(C)C)[C@H](C(=O)O)N(C(=O)C2CCCCC2)[C@@H]1c1ccccc1` (racemic) [II-6], for which the half-maximal effective concentration (EC50) runs as follows: under setting [4], 1 to 10 µM; under setting [5], 1 to 10 µM. Also, the “Maximum % activity (with co-corrector)” value under setting [6] was “+++ (≥350)”. Besides, the Emax (CSE-HRP, without co-corrector) is 100 to 200%.

Consider `COc1c(Cl)cccc1CN[C@@H]1[C@@H](C(C)(C)C)[C@H](C(=O)O)N(C(=O)C2CCCCC2)[C@@H]1c1ccccc1` (racemic) [II-7], for which the concentration giving a half-maximal response (EC50) was in the range of 1 to 10 µM under setting [4] and 1 to 10 µM under setting [5]. The “Maximum % activity (with co-corrector)” value under setting [6] is given as “+++ (≥350)”. The Emax (CSE-HRP, without co-corrector) was under 100%.

Take `CC(C)(C)[C@@H]1[C@@H](NCc2cc(Cl)ccc2OC(F)F)[C@@H](c2ccccc2)N(C(=O)C2CCCCC2)[C@H]1C(=O)O` (racemic) [II-8]: the concentration for a half-maximal effect (EC50) was 1 to 10 µM under setting [4] and 1 to 10 µM under setting [5]. Moreover, the “Maximum % activity (with co-corrector)” value under setting [6] is recorded as “+++ (≥350)”. In addition, the Emax (CSE-HRP, without co-corrector) is under 100%.

For the compound `CCOc1ccc(Cl)cc1CN[C@@H]1[C@@H](C(C)(C)C)[C@H](C(=O)O)N(C(=O)C2CCCCC2)[C@@H]1c1ccccc1` (racemic) [II-9], the 50% effective concentration (EC50) is, setting by setting: under setting [4], 1 to 10 µM; under setting [5], 1 to 10 µM. The “Maximum % activity (with co-corrector)” value under setting [6] is “+++ (≥350)”. For the same compound, the Emax (CSE-HRP, without co-corrector) was under 100%.

`COc1cccc(Cl)c1CN[C@@H]1[C@@H](C(C)(C)C)[C@H](C(=O)O)N(C(=O)C2CCCCC2)[C@@H]1c1ccccc1` (racemic) [II-10]: the EC50 was in the range of 1 to 10 µM under setting [4] and 1 to 10 µM under setting [5]. The “Maximum % activity (with co-corrector)” value under setting [6] is “+++ (≥350)”. For the same compound, the Emax (CSE-HRP, without co-corrector) fell in the range of 100 to 200%.
